Assay results: ChEMBL document CHEMBL2311314 (J Med Chem, 2013)
Converted amounts (≈) assume the structure as drawn. The source made the active and inactive calls. No cut-off for these calls is given here.

Legend:
Murine coronavirus [1] = test: Inhibition of mouse coronavirus 3CLpro expressed in Escherichia coli BL21 (DE3) at 100 uM by FRET assay in absence of 0.01% Triton X-100
[2] = Cytotoxicity against african green monkey Vero E6 cells after 48 hrs by CellTiter-Glo luminescent cell viability assay; assay type: cell-based; conditions: chlorocebus sabaeus
[3] = Cytotoxicity against african green monkey Vero E6 cells assessed as cell death at […] after 48 hrs by CellTiter-Glo luminescent cell viability assay; assay type: cell-based; conditions: chlorocebus sabaeus
Murine coronavirus [4] = test: Inhibition of mouse coronavirus 3CLpro expressed in Escherichia coli BL21 (DE3) at 100 uM by FRET assay in presence of 0.01% Triton X-100
[5] = molecular target: Replicase polyprotein 1a (Severe acute respiratory syndrome-related coronavirus) (UniProt P0C6U8); test: Inhibition of SARS-CoV 3CLpro expressed in Escherichia coli BL21 (DE3) at 100 uM by FRET assay in presence of 0.01% Triton X-100
Human coronavirus HKU1 [6] = test: Inhibition of human coronavirus HKU1 3CLpro expressed in Escherichia coli BL21 (DE3) at 100 uM by FRET assay in absence of 0.01% Triton X-100
[7] = molecular target: Replicase polyprotein 1a (Severe acute respiratory syndrome-related coronavirus) (UniProt P0C6U8); test: Inhibition of SARS-CoV 3CLpro expressed in Escherichia coli BL21 (DE3) at 100 uM by FRET assay in absence of 0.01% Triton X-100
Human coronavirus HKU1 [8] = test: Inhibition of human coronavirus HKU1 3CLpro expressed in Escherichia coli BL21 (DE3) at 100 uM by FRET assay in presence of 0.01% Triton X-100
Replicase polyprotein 1a [9] = molecular target: T1, Replicase polyprotein 1a (Severe acute respiratory syndrome-related coronavirus, UniProt P0C6U8); test: Inhibition of SARS-CoV 3CLpro expressed in Escherichia coli BL21 (DE3) after 2 hrs by FRET assay
Replicase polyprotein 1a [10] = molecular target: T1, Replicase polyprotein 1a; test: (§1) Inhibition of SARS-CoV 3CLpro expressed in Escherichia coli BL21 (DE3) by FRET assay
[11] = Aqueous solubility of the compound in PBS buffer at pH 7.4 after 4 hrs by HPLC with UV detection analysis; assay type: physicochemical
[12] = molecular target: Replicase polyprotein 1a (Severe acute respiratory syndrome-related coronavirus) (UniProt P0C6U8); test: as §1
[13] = Ratio of EC50 for SARS-CoV infected in african green monkey Vero E6 cells to Ki for SARS-CoV 3CLpro; set-up: species or system Severe acute respiratory syndrome-related coronavirus
[14] = Inhibition of SARS-CoV PL-pro after 10 mins by luminescence assay; set-up: species or system Severe acute respiratory syndrome-related coronavirus

| Compound | inhibition [5] | further results |
| --- | --- | --- |
| CN(C)CCCSc1ccccc1NC(=O)/C=C/c1ccccc1 [CINANSERIN] | inactive | inhibition (Murine coronavirus [1]): inactive; CC50 at 48 h [2]: 31 µM; CC90 at 48 h [2]: 66 µM; Activity [3]: > 90%; inhibition (Murine coronavirus [4]): inactive; inhibition (Human coronavirus HKU1 [6]): inactive; inhibition [7]: inactive; inhibition (Human coronavirus HKU1 [8]): inactive; IC50 (Replicase polyprotein 1a [9]): 5 µM |
| CC(C)(C)NC(=O)C(c1ccncc1)N(C(=O)c1ccco1)c1ccc(C(C)(C)C)cc1 (stereo not drawn) |  | IC50 (Replicase polyprotein 1a [10]): 45 µM |
| CC(C)(C)NC(=O)C(c1cccnc1)N(C(=O)CO)c1ccc(C(C)(C)C)cc1 (stereo not drawn) | > 49% |  |
| CC(C)(C)NC(=O)C(c1cccnc1)N(C(=O)c1cn[nH]c1)c1ccc(C(C)(C)C)cc1 (stereo not drawn) | > 49% |  |
| CC(C)(C)NC(=O)C(c1cccnc1)N(C(=O)c1ncco1)c1ccc(C(C)(C)C)cc1 (stereo not drawn) | > 49% | IC50 (Replicase polyprotein 1a [10]): 47 µM |
| Cc1ccc(C(=O)N(c2ccc(C(C)(C)C)cc2)C(C(=O)NC(C)(C)C)c2cccnc2)o1 (stereo not drawn) | 55% |  |
| O=C(Oc1cncc(Br)c1)c1cccs1 |  | IC50 (Replicase polyprotein 1a [10]): 0.5 µM |
| CC(C)(C)NC(=O)C(c1cccnc1)N(C(=O)Cc1ccccc1)c1ccc(C(C)(C)C)cc1 (stereo not drawn) | > 49% |  |
| CC(C)(C)NC(=O)C(c1cccnc1)N(C(=O)c1ncccn1)c1ccc(C(C)(C)C)cc1 (stereo not drawn) | > 49% |  |
| CC(C)(C)NC(=O)[C@@H](c1cccnc1)N(C(=O)c1ccco1)c1ccc(C(C)(C)C)cc1 |  | solubility at 4 h [11]: 219 µM (≈ 94.9 µg/mL) |
| CC(C)c1ccc(N(C(=O)c2ccco2)C(C(=O)NC(C)(C)C)c2cccnc2)cc1 (stereo not drawn) |  | IC50 (Replicase polyprotein 1a [10]): 28.1 µM |
| CC(C)(C)NC(=O)C(c1ccnnc1)N(C(=O)c1ccco1)c1ccc(C(C)(C)C)cc1 (stereo not drawn) |  | IC50 (Replicase polyprotein 1a [10]): 10 µM |
| CC(C)(C)NC(=O)C(c1cccnc1)N(C(=O)c1ccc(Cl)cc1)c1ccc(C(C)(C)C)cc1 (stereo not drawn) | > 49% |  |
| CC(C)(C)NC(=O)C(c1cccnc1)N(C(=O)c1ccccc1O)c1ccc(C(C)(C)C)cc1 (stereo not drawn) | > 49% |  |
| COCC(=O)N(c1ccc(C(C)(C)C)cc1)C(C(=O)NC(C)(C)C)c1cccnc1 (stereo not drawn) | > 49% |  |
| CC(C)(C)NC(=O)C(c1cccnc1)N(C(=O)Cc1cnc[nH]1)c1ccc(C(C)(C)C)cc1 (stereo not drawn) | > 49% |  |
| CC(C)(C)NC(=O)C(c1ccccn1)N(C(=O)c1ccco1)c1ccc(C(C)(C)C)cc1 (stereo not drawn) | < 15% |  |
| Cn1cnc(C(=O)N(c2ccc(C(C)(C)C)cc2)C(C(=O)NC(C)(C)C)c2cccnc2)c1 (stereo not drawn) | > 49% | IC50 (Replicase polyprotein 1a [10]): 75 µM |
| CC(C)(C)NC(=O)C(c1cccnc1)N(C(=O)c1ccccn1)c1ccc(C(C)(C)C)cc1 (stereo not drawn) | > 49% |  |
| Cc1ccoc1C(=O)N(c1ccc(C(C)(C)C)cc1)C(C(=O)NC(C)(C)C)c1cccnc1 (stereo not drawn) | 53% |  |
| CC(C)(C)NC(=O)C(c1cnccn1)N(C(=O)c1ccco1)c1ccc(C(C)(C)C)cc1 (stereo not drawn) |  | IC50 (Replicase polyprotein 1a [10]): 5.5 µM |
| CC(C)(C)NC(=O)C(c1cccnc1)N(C(=O)c1ccc[nH]1)c1ccc(C(C)(C)C)cc1 (stereo not drawn) | > 49% |  |
| CC(C)(C)NC(=O)C(c1cn[nH]c1)N(C(=O)c1ccco1)c1ccc(C(C)(C)C)cc1 (stereo not drawn) | 16% |  |
| CC(C)(C)NC(=O)C(c1cccnc1)N(C(=O)c1cc[nH]n1)c1ccc(C(C)(C)C)cc1 (stereo not drawn) | 56% |  |
| CC(C)(C)NC(=O)C(c1cccnc1)N(C(=O)c1ccc(F)cc1)c1ccc(C(C)(C)C)cc1 (stereo not drawn) | > 49% |  |
| CC(C)(C)NC(=O)C(c1cccnc1)N(C(=O)c1ncc[nH]1)c1ccc(C(C)(C)C)cc1 (stereo not drawn) | 49% |  |

| Compound | inhibition [5] | further results |
| --- | --- | --- |
| COc1cccc(C(=O)N(c2ccc(C(C)(C)C)cc2)C(C(=O)NC(C)(C)C)c2cccnc2)c1 (stereo not drawn) | > 49% |  |
| CC(C)(C)NC(=O)C(c1cccnc1)N(C(=O)c1cccnc1)c1ccc(C(C)(C)C)cc1 (stereo not drawn) | > 49% |  |
| CC(C)(C)NC(=O)C(c1cccnc1)N(C(=O)c1ccc(O)cc1)c1ccc(C(C)(C)C)cc1 (stereo not drawn) | > 49% |  |
| CC(C)(C)NC(=O)C(c1cccnc1)N(C(=O)c1ccncc1)c1ccc(C(C)(C)C)cc1 (stereo not drawn) | > 49% |  |
| CC(C)(C)NC(=O)C(c1cccnc1)N(C(=O)c1ccc(Cl)o1)c1ccc(C(C)(C)C)cc1 (stereo not drawn) | > 49% | IC50 (Replicase polyprotein 1a [10]): 5.2 µM |
| CC(C)(C)NC(=O)C(c1cccnc1)N(C(=O)CC(F)(F)F)c1ccc(C(C)(C)C)cc1 (stereo not drawn) | 57% |  |
| CC(C)(C)NC(=O)C(c1cccnc1)N(C(=O)c1cccc(O)c1)c1ccc(C(C)(C)C)cc1 (stereo not drawn) | > 49% |  |
| CC(C)(C)NC(=O)C(c1c[nH]nn1)N(C(=O)c1ccco1)c1ccc(C(C)(C)C)cc1 (stereo not drawn) | 23% |  |
| CC(C)(C)NC(=O)C(c1cccnc1)N(C(=O)c1ccco1)c1ccc(F)cc1 (stereo not drawn) |  | inhibition [12]: inactive |
| CC(C)(C)NC(=O)C(c1cccnc1)N(C(=O)c1cccs1)c1ccc(C(C)(C)C)cc1 (stereo not drawn) | > 49% | IC50 (Replicase polyprotein 1a [10]): 50 µM |
| C=C(Cc1cccc(C)c1)C1=CC=C(c2ccc(C)cc2)C1 |  | IC50 (Replicase polyprotein 1a [10]): 13 µM |
| CC(C)(C)NC(=O)C(c1cccnc1)N(C(=O)c1ccco1)C1CC1 (stereo not drawn) |  | inhibition [12]: inactive |
| COc1ccccc1C(=O)N(c1ccc(C(C)(C)C)cc1)C(C(=O)NC(C)(C)C)c1cccnc1 (stereo not drawn) | > 49% |  |
| CC(C)(C)NC(=O)C(c1cc[nH]n1)N(C(=O)c1ccco1)c1ccc(C(C)(C)C)cc1 (stereo not drawn) | < 15% |  |
| CC[C@H](NC(=O)[C@@H](NC(=O)OCc1ccccc1)[C@@H](C)OC(C)(C)C)C(=O)N[C@H](C=O)C[C@@H]1CCNC1=O |  | Ratio [13]: 11.5 |
| CC(C)(C)NC(=O)C(c1ccsc1)N(C(=O)c1ccco1)c1ccc(C(C)(C)C)cc1 (stereo not drawn) | 11% | inhibition [12]: inactive |
| CC(C)(C)NC(=O)C(c1cccnc1)N(C(=O)C1=NC=NC1)c1ccc(C(C)(C)C)cc1 (stereo not drawn) | > 49% | IC50 (Replicase polyprotein 1a [10]): 6 µM |
| Cc1ccc(C(C(=O)NC(C)(C)C)N(C(=O)c2ccco2)c2ccc(C(C)(C)C)cc2)cn1 (stereo not drawn) | < 15% |  |
| COc1ccc(C(=O)N(c2ccc(C(C)(C)C)cc2)C(C(=O)NC(C)(C)C)c2cccnc2)cc1 (stereo not drawn) | > 49% |  |
| CCN(CC)c1ccc(C(=O)On2nnc3ccccc32)cc1 |  | IC50 (Replicase polyprotein 1a [10]): 11.1 µM |
| CC(C)(C)NC(=O)C(c1cccnc1)N(C(=O)c1cnco1)c1ccc(C(C)(C)C)cc1 (stereo not drawn) | > 49% | IC50 (Replicase polyprotein 1a [10]): 39 µM |
| CCC(C)c1ccc(N(C(=O)c2ccco2)C(C(=O)NC2CCCC2)c2cccnc2)cc1 (stereo not drawn) |  | IC50 (Replicase polyprotein 1a [10]): 2.2 µM; IC50 [14]: 34 µM |
| CC(C)CC(=O)N(c1ccc(C(C)(C)C)cc1)C(C(=O)NC(C)(C)C)c1cccnc1 (stereo not drawn) | > 49% |  |
| CC(C)(C)NC(=O)C(c1c[nH]cn1)N(C(=O)c1ccco1)c1ccc(C(C)(C)C)cc1 (stereo not drawn) | 23% |  |
| CC(C)(C)NC(=O)C(c1cccnc1)N(C(=O)C1CCCO1)c1ccc(C(C)(C)C)cc1 (stereo not drawn) | > 49% |  |
